The test deals with i.p. implanted L-1210 leukemia. Put plainly: Antitumor activity against i.p. implanted L-1210 leukemia in mice. Format: in vivo. Conditions: for response vs control in vivo at 25 mg/kg: read-out: Percent T/C (mean survival days treated/control × 100), 25 mg/kg/day × 5 i.p.; for response vs control in vivo at 50 mg/kg: read-out: Percent T/C (mean survival days treated/control × 100), 50 mg/kg/day × 5 i.p.; for response vs control in vivo at 75 mg/kg: read-out: Percent T/C (mean survival days treated/control × 100), 75 mg/kg/day × 5 i.p.; for response vs control in vivo at 100 mg/kg: read-out: Percent T/C (mean survival days treated/control × 100), 100 mg/kg/day × 5 i.p.; for ascitic fluid at the end of the dosage period (5th day) / day on which mice started to accumulate ascitic fluid: doses between 25 and 75 mg/kg/day. The method, then: The ascites cell form of L-1210 leukemia, grown in C3 D2 F1 /J female mice (supplied by Jackson Labs) were employed. The assay was performed according to National Cancer Institute (NCI) protocol 1.100 described by R. I. Gerau et al., Cancer Chemother. Rep. (Part 3) 3: (2): 7, 47 (1972) with a slight modification. Intraperitoneal implantation of 1×10^6 cells in 0.5-ml suspension to the control and the treated groups (each group comprised 8 C3 D2 F1 /J female mice, average wt 20 g) was carried out using donor mice (DBA/2Ha, supplied by Roswell Park Memorial Institute) bearing 3 day tumor growths. Compounds were dissolved in 0.9 percent NaCl and a 0.5 ml dose was administered intraperitoneally once daily. Treatment began 24 h after implantation and continued for 5 consecutive days. Control animals received a 0.5 ml injection of saline. Testing was followed as described in the NCI protocol and evaluated by recording the survival time according to the formula appearing in protocol 11.

Results on two compounds are retold here after US4283394A, “Cytotoxic nucleoside-corticosteroid phosphodiesters” (priority 1979, dated 1981).

In the case of `C[C@]12C=CC(=O)C=C1CC[C@@H]1[C@@H]2C(=O)C[C@@]2(C)[C@H]1CC[C@]2(O)C(=O)CO[P+]([O-])(O)OC[C@H]1O[C@@H](n2ccc(N)nc2=O)[C@@H](O)[C@@H]1O` (stereo partly drawn) [Prednisone-p-ara-C (II), 5'-(Prednisone-21-phosphoryl)-1-β-D-arabinofuranosylcytosine], the “ascitic fluid at the end of the dosage period (5th day)” value is listed as “no ascitic fluid” and the “day on which mice started to accumulate ascitic fluid” value turned out to be 15 days. Also, where the note is “25 mg/kg/day × 5 i.p.”, the “Mean Survival Days, Treated” value turned out to be 14.63 days and the “Percent T/C (mean survival days treated/control × 100)” value is reported as 154%. Under “50 mg/kg/day × 5 i.p.”, the “Mean Survival Days, Treated” value is on record as 18.13 days and the “Percent T/C (mean survival days treated/control × 100)” value is reported as 210%. Moreover, the “Mean Survival Days, Treated” value (75 mg/kg/day × 5 i.p.) came out at 14.50 days. In addition, for the setting “100 mg/kg/day × 5 i.p.”, the “Mean Survival Days, Treated” value worked out at 10.88 days and the “Percent T/C (mean survival days treated/control × 100)” value is given as 124%. Also, the “Mean Survival Days, Treated” value (200 mg/kg/day × 5 i.p.) is reported as 9.13 days. Besides, for the setting “Mus musculus, L1210, ip”, the response vs control in vivo at 25 mg/kg was 154%, the response vs control in vivo at 50 mg/kg came out at 210%, the response vs control in vivo at 75 mg/kg amounted to 153% and the response vs control in vivo at 100 mg/kg came out at 124%. Besides, the response vs control in vivo at 200 mg/kg (Mus musculus, L1210, ip, read-out: Percent T/C (mean survival days treated/control × 100), 200 mg/kg/day × 5 i.p.) was 104%.
Regarding `C[C@]12C=CC(=O)C=C1CC[C@@H]1[C@@H]2[C@@H](O)C[C@@]2(C)[C@H]1CC[C@]2(O)C(=O)CO[P+]([O-])(O)OC[C@H]1O[C@@H](n2ccc(N)nc2=O)[C@@H](O)[C@@H]1O` (stereo partly drawn) [Pred-p-ara-C (I), 5'-(Prednisolone-21-phosphoryl)-1-β-D-arabinofuranosylcytosine], the “ascitic fluid at the end of the dosage period (5th day)” value is “no ascitic fluid” and the “day on which mice started to accumulate ascitic fluid” value was determined as 15 days. Besides, where the note is “25 mg/kg/day × 5 i.p.”, the “Mean Survival Days, Treated” value was 14.63 days and the “Percent T/C (mean survival days treated/control × 100)” value amounted to 154%. Also, the “Mean Survival Days, Treated” value (40 mg/kg/day × 5 i.p.) is listed as 15.25 days. The “Mean Survival Days, Treated” value (50 mg/kg/day × 5 i.p.) was 19.13 days. Moreover, the “Mean Survival Days, Treated” value (75 mg/kg/day × 5 i.p.) was found to be 16.88 days. Also, the “Mean Survival Days, Treated” value (100 mg/kg/day × 5 i.p.) is given as 11.74 days. Also, where the note is “Mus musculus, L1210, ip”, the response vs control in vivo at 25 mg/kg was found to be 154%, the response vs control in vivo at 50 mg/kg was 201%, the response vs control in vivo at 75 mg/kg is 178% and the response vs control in vivo at 100 mg/kg is 136%. In addition, under “Mus musculus, L1210, ip, read-out: Percent T/C (mean survival days treated/control × 100), 40 mg/kg/day × 5 i.p.”, the response vs control in vivo at 40 mg/kg stood at 174%.
